{"source": "patent US11766430B2", "about": "“Methods of using a phenoxypropylamine compound to treat pain” (Minerva Neurosciences, Inc., priority 2018, dated 2023)", "test_system": "carrageenan-induced mechanical hyperalgesia in rats", "assay": "Carrageenan-induced mechanical hyperalgesia, paw pressure test, time course to 240 min (Example 2)", "type": "in vivo, male Sprague-Dawley rats", "protocol": "In this model, inflammation is induced by intraplantar injection of carrageenan (2%) into the right hindpaw of the rat. Three hours later, reaction thresholds are measured using the paw pressure test. Pressure is gradually applied to both hind paws (inflamed and control) of the rat, and reaction thresholds are determined as the pressure (g) required to elicit paw withdrawal or vocalization. Morphine (3 mg/kg, s.c.) was used as a positive control.\nThe experiments in this study used fifty (50) male Sprague-Dawley rats (SPF status, Janvier, France), each weighing 204-260 grams. The rats were housed in a temperature (20-24° C.) and relative humidity (45%-65%) controlled room and acclimated to an artificial day/night cycle of 12 hours light (6.30 a.m. to 6.30 p.m.)/12 hours darkness. Rats had free access to sterilized tap water and were fed ad libitum with pelleted complete diet (reference A04, S.A.F.E.). Rats were housed 4 per cage (cages Type E) and were acclimated for a period of at least 5 days before any testing. Each rat was identified by tail markings. Based on the SPF status of the animal facilities, there is no reason to expect that contaminants were present in the food, water or bedding, at levels capable of interfering with the results of the tests.\nPain Test: Static mechanical hyperalgesia was assessed using the Paw Pressure test or Randall & Selitto test (Randall, L. O. and Selitto, J. J., A method for measurement of analgesic activity on inflamed tissue, Arch Int Pharmacodyn, 1957(111): 409-419). This test requires the application of an increasing pressure on the hind paws between a flat surface and a blunt pointer. This test is usually used with animals with one hind paw inflamed by an injection or injured by ligation, and one normal hind paw, to evaluate drugs for analgesic action. The apparatus exerts a steadily increasing force and reaction threshold is determined as the pressure (g) required to elicit paw withdrawal and/or vocalization. In the experiment, animals were gently handled by the experimenter and static mechanical hyperalgesia was assessed. Each reaction threshold measurement was done for both hind paws.\nFive (5) experimental groups of 10 rats each were used. Each group was first injected with of 100 μL of a 2% carrageenan suspension in the plantar aspect of the right hindpaw. Three hours after carrageenan injection, paw withdrawal threshold was measured using the paw pressure test (Baseline). The 5 groups were then administered the following: • Group 1: vehicle (0.5% HPMC), i.p., solution (negative control); • Group 2: MIN-117 (0.01 mg/kg, i.p.) in 0.5% HPMC, suspension; • Group 3: MIN-117 (0.1 mg/kg, i.p.) in 0.5% HPMC, suspension; • Group 4: MIN-117 (1 mg/kg, i.p.) in 0.5% HPMC, suspension; and • Group 5: morphine (3 mg/kg, s.c.) in 0.9% NaCl, solution (positive control).\nAfter administering vehicle, MIN-117, or morphine, the antihyperalgesic effect of the compounds was evaluated using the paw pressure test at 0 min. (T0), 30 min., 60 min., 120 min., and 240 min.\nVehicle and MIN-117 were administered intraperitoneally at 10 mL/kg. Morphine was subcutaneously administered at 5 mL/kg. Dosing and testing were performed in a random order by a blinded experimenter except for the morphine-treated group. Doses were expressed in terms of free active substance. Rats were sacrificed at the end of the experiment by CO2 inhalation pending subsequent removal by a certified company.\nResults were assessed as: the paw withdrawal threshold (mean±s.e.m.) in grams of contact pressure for each group, calculated from individual paw withdrawal thresholds; the percentage of variation of the paw withdrawal threshold calculated from the mean value of the vehicle-treated group; and/or the percentage of activity. To determine a statistical effect of the test substance and the reference substance, data were analyzed by a non-parametrical test. The significance level was p<0.05.", "key": {"[1]": {"conditions": "0.01 mg/kg i.p., 30 min, hydrochloride"}, "[2]": {"conditions": "0.01 mg/kg i.p., 60 min, hydrochloride"}, "[3]": {"conditions": "0.01 mg/kg i.p., 120 min, hydrochloride"}, "[4]": {"conditions": "0.01 mg/kg i.p., 240 min, hydrochloride"}, "[5]": {"conditions": "0.01 mg/kg i.p., Baseline, hydrochloride"}, "[6]": {"conditions": "0.01 mg/kg i.p., T0 (baseline before dosing)"}, "[7]": {"conditions": "0.01 mg/kg i.p., T0 (baseline before dosing), hydrochloride"}, "[8]": {"conditions": "0.01 mg/kg i.p., T0 + 30 min, hydrochloride"}, "[9]": {"conditions": "0.01 mg/kg i.p., T0 + 60 min, hydrochloride"}, "[10]": {"conditions": "0.1 mg/kg i.p., 30 min, hydrochloride"}, "[11]": {"conditions": "0.1 mg/kg i.p., 60 min, hydrochloride"}, "[12]": {"conditions": "0.1 mg/kg i.p., 120 min, hydrochloride"}, "[13]": {"conditions": "0.1 mg/kg i.p., 240 min, hydrochloride"}, "[14]": {"conditions": "0.1 mg/kg i.p., Baseline, hydrochloride"}, "[15]": {"conditions": "0.1 mg/kg i.p., T0 (baseline before dosing)"}}, "note": "“And” between values parts separate entries of the source, which are not always exact repeats. Equal values may be shown once."}
{"smiles": "Cc1nnc(-c2cc3c(OC[C@@H](O)CN4CCC(c5ccc(Cl)c(Cl)c5)CC4)cccc3o2)o1.Cl", "note": "[MIN-117, (2S)-1-(4-(3,4-dichlorophenyl)piperidin-1-yl)-3-((2-(5-methyl-1,3,4-oxadiazol-2-yl)benzofuran-4-yl)oxy)propan-2-ol hydrochloride]", "values": [{"measurement": "Nociceptive threshold, control paw, individual rats", "setting": "[1]", "value": "360 g (4×) and 380 g (3×) and 420 g and 340 g and 280 g"}, {"measurement": "Nociceptive threshold, injured paw, individual rats", "setting": "[1]", "value": "180 g (3×) and 220 g and 160 g (2×) and 140 g (2×) and 200 g (2×)"}, {"measurement": "Nociceptive threshold, control paw, individual rats", "setting": "[2]", "value": "380 g and 340 g (3×) and 320 g (2×) and 360 g (2×) and 420 g and 300 g"}, {"measurement": "Nociceptive threshold, injured paw, individual rats", "setting": "[2]", "value": "220 g (3×) and 160 g (3×) and 180 g (2×) and 140 g (2×)"}, {"measurement": "Nociceptive threshold, control paw, individual rats", "setting": "[3]", "value": "440 g and 360 g (2×) and 340 g and 320 g and 400 g (2×) and 420 g (2×) and 380 g"}, {"measurement": "Nociceptive threshold, injured paw, individual rats", "setting": "[3]", "value": "300 g and 180 g (2×) and 160 g (2×) and 200 g (4×) and 220 g"}, {"measurement": "Nociceptive threshold, control paw, individual rats", "setting": "[4]", "value": "340 g and 360 g (2×) and 380 g (2×) and 300 g and 320 g (3×) and 420 g"}, {"measurement": "Nociceptive threshold, injured paw, individual rats", "setting": "[4]", "value": "200 g (3×) and 180 g (4×) and 160 g (2×) and 140 g"}, {"measurement": "Nociceptive threshold, control paw, individual rats", "setting": "[5]", "value": "400 g (3×) and 380 g (3×) and 320 g and 360 g and 340 g (2×)"}, {"measurement": "Nociceptive threshold, injured paw, individual rats", "setting": "[5]", "value": "240 g and 180 g (5×) and 200 g (2×) and 160 g (2×)"}, {"measurement": "% activity, injured paw", "setting": "[6]", "value": 2, "unit": "%"}, {"measurement": "% variation vs control paw, injured paw", "setting": "[6]", "value": "−50", "unit": "%"}, {"measurement": "% variation vs vehicle-treated group, injured paw", "setting": "[6]", "value": 2, "unit": "%"}, {"measurement": "Nociceptive threshold, control paw (mean ± s.e.m.)", "setting": "[7]", "value": "370.0 ± 9.1 g and 370 g"}, {"measurement": "Nociceptive threshold, injured paw (mean ± s.e.m.)", "setting": "[7]", "value": "186 ± 7.3 g and 186 g"}, {"measurement": "% activity, injured paw", "setting": "0.01 mg/kg i.p., T0 + 30 min", "value": "−1", "unit": "%"}, {"measurement": "% variation vs control paw, injured paw", "setting": "0.01 mg/kg i.p., T0 + 30 min", "value": "−51", "unit": "%"}, {"measurement": "% variation vs pre-drug threshold, injured paw", "setting": "0.01 mg/kg i.p., T0 + 30 min", "value": "−5", "unit": "%"}, {"measurement": "Nociceptive threshold, control paw (mean ± s.e.m.)", "setting": "0.01 mg/kg i.p., T0 + 30 min", "value": 362, "unit": "g"}, {"measurement": "% variation vs vehicle-treated group, injured paw", "setting": "[8]", "value": "−1% and 1%"}, {"measurement": "Nociceptive threshold, injured paw (mean ± s.e.m.)", "setting": "[8]", "value": "176 ± 8.3 g and 176 g"}, {"measurement": "% activity, injured paw", "setting": "0.01 mg/kg i.p., T0 + 60 min", "value": "−6", "unit": "%"}, {"measurement": "% variation vs control paw, injured paw", "setting": "0.01 mg/kg i.p., T0 + 60 min", "value": "−49", "unit": "%"}, {"measurement": "% variation vs pre-drug threshold, injured paw", "setting": "0.01 mg/kg i.p., T0 + 60 min", "value": "−4", "unit": "%"}, {"measurement": "Nociceptive threshold, control paw (mean ± s.e.m.)", "setting": "0.01 mg/kg i.p., T0 + 60 min", "value": 348, "unit": "g"}, {"measurement": "% variation vs vehicle-treated group, injured paw", "setting": "[9]", "value": "−5% and 5%"}, {"measurement": "Nociceptive threshold, injured paw (mean ± s.e.m.)", "setting": "[9]", "value": "178 ± 10.1 g and 178 g"}, {"measurement": "% activity, injured paw", "setting": "0.01 mg/kg i.p., T0 + 120 min", "value": 9, "unit": "%"}, {"measurement": "% variation vs control paw, injured paw", "setting": "0.01 mg/kg i.p., T0 + 120 min", "value": "−48", "unit": "%"}, {"measurement": "% variation vs pre-drug threshold, injured paw", "setting": "0.01 mg/kg i.p., T0 + 120 min", "value": 8, "unit": "%"}, {"measurement": "% variation vs vehicle-treated group, injured paw", "setting": "0.01 mg/kg i.p., T0 + 120 min", "value": 8, "unit": "%"}, {"measurement": "Nociceptive threshold, control paw (mean ± s.e.m.)", "setting": "0.01 mg/kg i.p., T0 + 120 min", "value": 384, "unit": "g"}, {"measurement": "Nociceptive threshold, injured paw (mean ± s.e.m.)", "setting": "0.01 mg/kg i.p., T0 + 120 min, hydrochloride", "value": "200 ± 12.6 g and 200 g"}, {"measurement": "% activity, injured paw", "setting": "0.01 mg/kg i.p., T0 + 240 min", "value": "−5", "unit": "%"}, {"measurement": "% variation vs control paw, injured paw", "setting": "0.01 mg/kg i.p., T0 + 240 min", "value": "−49", "unit": "%"}, {"measurement": "% variation vs pre-drug threshold, injured paw", "setting": "0.01 mg/kg i.p., T0 + 240 min", "value": "−4", "unit": "%"}, {"measurement": "% variation vs vehicle-treated group, injured paw", "setting": "0.01 mg/kg i.p., T0 + 240 min", "value": "−4", "unit": "%"}, {"measurement": "Nociceptive threshold, control paw (mean ± s.e.m.)", "setting": "0.01 mg/kg i.p., T0 + 240 min", "value": 350, "unit": "g"}, {"measurement": "Nociceptive threshold, injured paw (mean ± s.e.m.)", "setting": "0.01 mg/kg i.p., T0 + 240 min, hydrochloride", "value": "178 ± 6.3 g and 178 g"}, {"measurement": "Effect on injured paw withdrawal threshold vs vehicle-treated group (in words)", "setting": "0.01 mg/kg i.p., time course 30-240 min", "value": "did not induce any significant increase"}, {"measurement": "Nociceptive threshold, control paw, individual rats", "setting": "[10]", "value": "440 g and 320 g (3×) and 460 g and 300 g and 360 g and 340 g (3×)"}, {"measurement": "Nociceptive threshold, injured paw, individual rats", "setting": "[10]", "value": "200 g (4×) and 160 g (2×) and 180 g (4×)"}, {"measurement": "Nociceptive threshold, control paw, individual rats", "setting": "[11]", "value": "360 g (3×) and 300 g (2×) and 420 g and 400 g and 320 g (2×) and 340 g"}, {"measurement": "Nociceptive threshold, injured paw, individual rats", "setting": "[11]", "value": "180 g (2×) and 140 g and 160 g (3×) and 200 g (3×) and 220 g"}, {"measurement": "Nociceptive threshold, control paw, individual rats", "setting": "[12]", "value": "380 g and 280 g and 420 g (2×) and 300 g and 340 g (3×) and 360 g (2×)"}, {"measurement": "Nociceptive threshold, injured paw, individual rats", "setting": "[12]", "value": "160 g (3×) and 140 g and 220 g and 200 g (2×) and 180 g (3×)"}, {"measurement": "Nociceptive threshold, control paw, individual rats", "setting": "[13]", "value": "400 g (2×) and 320 g and 340 g and 280 g and 360 g (3×) and 380 g and 300 g"}, {"measurement": "Nociceptive threshold, injured paw, individual rats", "setting": "[13]", "value": "180 g (3×) and 160 g (3×) and 140 g and 220 g (2×) and 200 g"}, {"measurement": "Nociceptive threshold, control paw, individual rats", "setting": "[14]", "value": "420 g (2×) and 380 g (2×) and 400 g (2×) and 360 g (2×) and 340 g and 320 g"}, {"measurement": "Nociceptive threshold, injured paw, individual rats", "setting": "[14]", "value": "200 g (3×) and 180 g (3×) and 160 g (4×)"}, {"measurement": "% activity, injured paw", "setting": "[15]", "value": "−2", "unit": "%"}, {"measurement": "% variation vs control paw, injured paw", "setting": "[15]", "value": "−53", "unit": "%"}, {"measurement": "% variation vs vehicle-treated group, injured paw", "setting": "[15]", "value": "−2", "unit": "%"}, {"measurement": "Nociceptive threshold, control paw (mean ± s.e.m.)", "setting": "0.1 mg/kg i.p., T0 (baseline before dosing), hydrochloride", "value": "378.0 ± 10.5 g and 378 g"}]}
